biological target: T1, KCNT1 (KNa1.1, Slack) (Homo sapiens, UniProt Q5JUK3); test: KCNT1-WT-Basal Patch Clamp Assay; format: cell-based; conditions: tetracycline inducible cell line (HEK-TREX); SyncroPatch 384PE automated patch clamp, perforated patch mode, room temperature, step from -80 mV to 0 mV
T1 construct: expressed in transfected cells; host or cells: HEK-TREX (tetracycline-inducible cell line)
T1 sequence (Q5JUK3 1-1230): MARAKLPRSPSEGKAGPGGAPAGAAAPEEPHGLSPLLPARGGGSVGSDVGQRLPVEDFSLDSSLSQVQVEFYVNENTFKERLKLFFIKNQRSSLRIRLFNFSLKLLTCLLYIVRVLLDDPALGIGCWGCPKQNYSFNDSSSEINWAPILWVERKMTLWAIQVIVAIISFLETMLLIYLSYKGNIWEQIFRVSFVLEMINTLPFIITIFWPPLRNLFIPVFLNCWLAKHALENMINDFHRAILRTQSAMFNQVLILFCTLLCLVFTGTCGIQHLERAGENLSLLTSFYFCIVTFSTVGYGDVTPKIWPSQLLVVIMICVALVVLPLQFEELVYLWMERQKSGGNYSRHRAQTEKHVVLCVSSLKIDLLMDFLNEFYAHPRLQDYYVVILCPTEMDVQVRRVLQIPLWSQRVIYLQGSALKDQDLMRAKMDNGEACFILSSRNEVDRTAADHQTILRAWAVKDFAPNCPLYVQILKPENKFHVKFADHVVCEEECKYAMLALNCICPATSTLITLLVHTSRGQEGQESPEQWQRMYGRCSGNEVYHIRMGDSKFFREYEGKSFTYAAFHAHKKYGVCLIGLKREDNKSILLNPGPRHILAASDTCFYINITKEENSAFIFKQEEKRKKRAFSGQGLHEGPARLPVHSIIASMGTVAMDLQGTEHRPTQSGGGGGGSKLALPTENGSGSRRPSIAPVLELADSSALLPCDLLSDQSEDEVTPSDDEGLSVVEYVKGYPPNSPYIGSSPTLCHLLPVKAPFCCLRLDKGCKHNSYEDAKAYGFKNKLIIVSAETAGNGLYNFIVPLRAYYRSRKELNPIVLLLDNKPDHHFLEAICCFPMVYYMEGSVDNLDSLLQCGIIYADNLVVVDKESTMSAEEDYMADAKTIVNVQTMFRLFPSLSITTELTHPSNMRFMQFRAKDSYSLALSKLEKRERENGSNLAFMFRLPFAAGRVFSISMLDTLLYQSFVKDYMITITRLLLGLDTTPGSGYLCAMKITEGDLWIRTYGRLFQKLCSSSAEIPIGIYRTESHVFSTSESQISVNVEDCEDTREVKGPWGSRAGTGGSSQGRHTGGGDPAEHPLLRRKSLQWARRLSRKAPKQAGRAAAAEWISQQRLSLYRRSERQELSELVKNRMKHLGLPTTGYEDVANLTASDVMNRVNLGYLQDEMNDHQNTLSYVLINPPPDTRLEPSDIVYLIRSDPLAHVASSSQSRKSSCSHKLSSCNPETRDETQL
Method: KCNT1-WT-Basal—Patch Clamp Assay
Inhibition of KCNT1 (KNa1.1, Slack) was evaluated using a tetracycline inducible cell line (HEK-TREX). Currents were recorded using the SyncroPatch 384PE automated, patch clamp system. Pulse generation and data collection were performed with PatchController384 V1.3.0 and DataController384 V1.2.1 (Nanion Technologies). The access resistance and apparent membrane capacitance were estimated using built-in protocols. Current were recorded in perforated patch mode (10 μM escin) from a population of cells. The cells were lifted, triturated, and resuspended at 800,000 cells/ml. The cells were allowed to recover in the cell hotel prior to experimentation. Currents were recorded at room temperature. The external solution contained the following (in mM): NaCl 105, NMDG 40, KCl 4, MgCl2 1, CaCl2 5 and HEPES 10 (pH=7.4, Osmolarity ˜300 mOsm). The extracellular solution was used as the wash, reference and compound delivery solution. The internal solution contained the following (in mM): NaCl 70, KF 70, KCl 10, EGTA 5, HEPES 5 and Escin 0.01 (pH=7.2, Osmolarity ˜295 mOsm). Escin is made at a 5 mM stock in water, aliquoted, and stored at −20° C. The compound plate was created at 2× concentrated in the extracellular solution. The compound was diluted to 1:2 when added to the recording well. The amount of DMSO in the extracellular solution was held constant at the level used for the highest tested concentration. A holding potential of −80 mV with a 100 ms step to 0 mV was used. Mean current was measured during the step to 0 mV. […] The average mean current from 3 sweeps was calculated and the % inhibition of each compound was calculated. The % Inhibition as a function of the compound concentration was fit with a Hill equation to derive IC50, slope, min and max parameters. If KCNT1 inhibition was less than 50% at the highest tested concentration or if an IC50 could not be calculated, then a percent inhibition was reported in place of the IC50.
In this table, “A” indicates IC50 of less than or equal to 1 μM; “B” indicates inhibition of between 1 μM to 20 μM; and “C” indicates inhibition of greater than or equal to 20 μM.

Structure (SMILES) | IC50
COc1ccccc1C(=O)N[C@@H](C)c1nc(-c2ccnc(C3CC3)c2)no1 [Compound I-75, N-[(1S)-1-[3-(2-cyclopropyl-4-pyridyl)-1,2,4-oxadiazol-5-yl]ethyl]-2-methoxy-benzamide] | ≤ 1 µM
CC(C)Oc1cc(-c2noc([C@H](C)NC(=O)N(C)C(C)(C)C)n2)ccn1 [II-5] | ≤ 1 µM
CC(C)Oc1cc(-c2noc([C@H](C)NC(=O)C3CCCC3)n2)ccn1 [Compound I-46, (S)—N-(1-(3-(2-isopropoxypyridin-4-yl)-1,2,4-oxadiazol-5-yl)ethyl)cyclopentane-carboxamide] | ≤ 1 µM
C[C@H](NC(=O)C1CCCCN1C)c1nc(-c2ccnc(C(F)(F)F)c2)no1 (stereo partly drawn) [Compound I-66, 1-methyl-N—((S)-1-(3-(2-(trifluoromethyl)pyridin-4-yl)-1,2,4-oxadiazol-5-yl)ethyl)piperidine-2-carboxamide] | ≥ 20 µM
Cc1nc(C(F)(F)F)ccc1C(=O)N[C@@H](C)c1nc(-c2ccnc(C3CC3)c2)no1 [Compound I-53, (S)—N-(1-(3-(2-cyclopropylpyridin-4-yl)-1,2,4-oxadiazol-5-yl)ethyl)-2-methyl-6-(trifluoromethyl)nicotinamide] | ≤ 1 µM
C[C@H](NC(=O)C12CCC(CC1)CC2)c1nc(-c2ccnc(C(F)(F)F)c2)no1 [Compound I-59, (S)—N-(1-(3-(2-(trifluoromethyl)pyridin-4-yl)-1,2,4-oxadiazol-5-yl)ethyl)bicyclo[2.2.2]octane-1-carboxamide] | ≤ 1 µM
C[C@H](NC(=O)c1cc(F)cc(F)c1)c1nc(-c2ccnc(C3CC3)c2)no1 [Compound I-102, (S)—N-(1-(3-(2-cyclopropylpyridin-4-yl)-1,2,4-oxadiazol-5-yl)ethyl)-3,5-difluorobenzamide] | ≤ 1 µM
C[C@H](NC(=O)N(C)c1ccccc1)c1nc(-c2ccnc(C(F)(F)F)c2)no1 [II-12] | ≤ 1 µM
C[C@H](NC(=O)C1CC2CCC1CC2)c1nc(-c2ccnc(C(F)(F)F)c2)no1 (stereo partly drawn) [Compound I-60, N—((S)-1-(3-(2-(trifluoromethyl)pyridin-4-yl)-1,2,4-oxadiazol-5-yl)ethyl)bicyclo[2.2.2]octane-2-carboxamide] | ≤ 1 µM
CC(C)Oc1cc(-c2noc([C@H](C)NC(=O)N3CCCCC3)n2)ccn1 [II-2] | ≤ 1 µM
CCOc1cc(-c2noc([C@H](C)NC(=O)c3ccccc3)n2)ccn1 [Compound I-44, (S)—N-(1-(3-(2-ethoxypyridin-4-yl)-1,2,4-oxadiazol-5-yl)ethyl)benzamide] | ≤ 1 µM
C[C@H](NC(=O)c1ccnc(C(F)(F)F)c1)c1nc(-c2ccnc(C(F)(F)F)c2)no1 [Compound I-14, (S)-2-(trifluoromethyl)-N-(1-(3-(2-(trifluoromethyl)pyridin-4-yl)-1,2,4-oxadiazol-5-yl)ethyl)isonicotinamide] | ≤ 1 µM
C[C@H](NC(=O)C12CC(C)(C1)C2)c1nc(-c2ccnc(C(F)(F)F)c2)no1 [Compound I-72, 3-methyl-N-[(1S)-1-[3-[2-(trifluoromethyl)-4-pyridyl]-1,2,4-oxadiazol-5-yl]ethyl]bicyclo[1.1.1]pentane-1-carboxamide] | 1 to 20 µM
CC1CCCC1C(=O)N[C@@H](C)c1nc(-c2ccnc(C(F)(F)F)c2)no1 (stereo partly drawn) [Compound I-30, 2-methyl-N—((S)-1-(3-(2-(trifluoromethyl)pyridin-4-yl)-1,2,4-oxadiazol-5-yl)ethyl)cyclopentane-1-carboxamide] | 1 to 20 µM
C[C@H](NC(=O)c1ccc(Br)s1)c1nc(-c2ccnc(C3CC3)c2)no1 [Compound I-57, (S)-5-bromo-N-(1-(3-(2-cyclopropylpyridin-4-yl)-1,2,4-oxadiazol-5-yl)ethyl)thiophene-2-carboxamide] | ≤ 1 µM
C[C@H](NC(=O)[C@H]1CCCC(=O)N1)c1nc(-c2ccnc(C(F)(F)F)c2)no1 [Compound I-34, (R)-6-oxo-N—((S)-1-(3-(2-(trifluoromethyl)pyridin-4-yl)-1,2,4-oxadiazol-5-yl)ethyl)piperidine-2-carboxamide] | ≥ 20 µM
C[C@H](NC(=O)c1cccnc1)c1nc(-c2ccnc(C(F)(F)F)c2)no1 [Compound I-11, (S)—N-(1-(3-(2-(trifluoromethyl)pyridin-4-yl)-1,2,4-oxadiazol-5-yl)ethyl)nicotinamide] | 1 to 20 µM
CC[C@H](NC(=O)Cc1ccccc1)c1nc(-c2ccnc(C(F)(F)F)c2)no1 [Compound I-15, (S)-2-phenyl-N-(1-(3-(2-(trifluoromethyl)pyridin-4-yl)-1,2,4-oxadiazol-5-yl)propyl)acetamide] | ≤ 1 µM
C[C@H](NC(=O)C1CCN(C)CC1)c1nc(-c2ccnc(C(F)(F)F)c2)no1 [Compound I-65, (S)-1-methyl-N-(1-(3-(2-(trifluoromethyl)pyridin-4-yl)-1,2,4-oxadiazol-5-yl)ethyl)piperidine-4-carboxamide] | ≥ 20 µM
COc1ccc(C(=O)N[C@@H](C)c2nc(-c3ccnc(C4CC4)c3)no2)cc1 [Compound I-61, (S)—N-(1-(3-(2-cyclopropylpyridin-4-yl)-1,2,4-oxadiazol-5-yl)ethyl)-4-methoxybenzamide] | ≤ 1 µM
C[C@H](NC(=O)N1CCCc2ccccc21)c1nc(-c2ccnc(C3CC3)c2)no1 [II-8] | ≤ 1 µM
C[C@H](NC(=O)C1CCCC12CC2)c1nc(-c2ccnc(C(F)(F)F)c2)no1 (stereo partly drawn) [Compound I-82, N-[(1S)-1-[3-[2-(trifluoromethyl)-4-pyridyl]-1,2,4-oxadiazol-5-yl]ethyl]spiro[2.4]heptane-7-carboxamide] | ≤ 1 µM
C[C@H](NC(=O)C1CCCC1)c1nc(-c2ccnc(C3CC3)c2)no1 [Compound I-105, (S)—N-(1-(3-(2-cyclopropylpyridin-4-yl)-1,2,4-oxadiazol-5-yl)ethyl)cyclopentanecarboxamide] | ≤ 1 µM
C[C@H](NC(=O)N1CCOc2ccccc21)c1nc(-c2ccnc(C3CC3)c2)no1 [II-6] | ≤ 1 µM
CC(NC(=O)c1cn2c(n1)CCCC2)c1nc(-c2cccc(F)c2)no1 (stereo not drawn) [Compound I-52, N-[1-[3-(3-fluorophenyl)-1,2,4-oxadiazol-5-yl]ethyl]-5,6,7,8-tetrahydroimidazo[1,2-a]pyridine-2-carboxamide] | ≥ 20 µM
C[C@H](NC(=O)[C@H](C)c1ccccc1)c1nc(-c2ccnc(C(F)(F)F)c2)no1 [Compound I-17, (R)-2-phenyl-N—((S)-1-(3-(2-(trifluoromethyl)pyridin-4-yl)-1,2,4-oxadiazol-5-yl)ethyl)propanamide] | ≤ 1 µM
C[C@H](NC(=O)C1(C)CC1)c1nc(-c2ccnc(C(F)(F)F)c2)no1 [Compound I-33, (S)-1-methyl-N-(1-(3-(2-(trifluoromethyl)pyridin-4-yl)-1,2,4-oxadiazol-5-yl)ethyl)cyclopropane-1-carboxamide] | 1 to 20 µM

— patent US12583849B2, “KCNT1 inhibitors and methods of use” (Praxis Precision Medicines, Inc., priority 2020, dated 2026)
